Test results: patent US20240269304A1, “BCL-XL INHIBITOR ANTIBODY-DRUG CONJUGATES AND METHODS OF USE THEREOF” (Novartis AG, priority 2020, published 2024)
Where two headings read alike, the source gives them in different places.

Tested on: H1650 cells
Experiment: CellTiterGlo (CTG) cell viability, 3D, 120 h, H1650 (Example 8)
Type: cell-based, human
Experimental: H1650 cells were cultivated in RPMI supplemented with 10% heat inactivated fetal bovine serum, penicillin (100 IU/ml), streptomycin (100 μg/ml) and L-glutamine (2 mM). Cell lines were cultured at 37° C. in a humidified atmosphere containing 5% 002. Cells were seeded in 96 microwell round bottom plates (96 microwell Low attachment plates , Costar reference 7007) and exposed to the payloads or ADCs for 120 h (serially diluted; 9 concentrations each, duplicates). Effects of payloads or ADCs on cell viability were assessed after 5 days of incubation at 37° C./5% CO2 by quantification of cellular ATP levels using CellTiterGlo at 75 μL reagent/well. All the conditions were tested in duplicates. Luminescence was quantified on a multipurpose plate reader. IC50S were calculated using standard four-parametric curve fitting. […] Each experiment was performed at least twice, with results being reproducible.

[1] = H1650 3D, experiment n1, read-out: H1650 3D CTG IC50 n1
[2] = H1650 3D, experiment n2, read-out: H1650 3D CTG IC50 n2
[3] = H1650 3D, mean of n1 and n2, read-out: H1650 3D CTG IC50 Mean of n1 and n2
[4] = Homo sapiens, NCI-H1650, H1650 3D, experiment n1, read-out: H1650 3D CTG IC50 n1
[5] = Homo sapiens, NCI-H1650, H1650 3D, experiment n2, read-out: H1650 3D CTG IC50 n2
[6] = Homo sapiens, NCI-H1650, H1650 3D, mean of n1 and n2, read-out: H1650 3D CTG IC50 Mean of n1 and n2

SMILES | IC50 [1] [nM] | IC50 [2] [nM] | IC50 [3] [nM] | IC50 [4] [nM] | IC50 [5] [nM] | IC50 [6] [nM]
Cc1cc(N(C)c2nc(C(=O)O)c(CCCOc3ccc(C#CC[N+](C)(C)Cc4ccc(NC(=O)[C@H](CCCNC(N)=O)NC(=O)[C@@H](NC(=O)CCOCCN5C(=O)CC(C)C5=O)C(C)C)cc4)cc3F)s2)nnc1Nc1nc2ccccc2s1 (stereo partly drawn) [Ab C - L9A-P2] | 4.2 | 7 | 5.6 |  |  | 
Cc1c(Nc2nc3ccccc3s2)nnc2c1CCCN2c1nc(C(=O)[O-])c(CCCOc2ccc(C#CCN3CC[N+](C)(Cc4ccc(NC(=O)[C@H](CCCNC(N)=O)NC(=O)[C@@H](NC(=O)CCOCCN5C(=O)CC(C)C5=O)C(C)C)cc4)CC3)cc2F)s1 (stereo partly drawn) [Ab C - L9A-P10] | 0.3 | 0.5 | 0.4 |  |  | 
Cc1cc(N(C)c2nc(C(=O)[O-])c(CCCOc3ccc(C#CC[N+](C)(C)Cc4ccc(NC(=O)[C@H](C)NC(=O)[C@@H](NC(=O)CCOCCN5C(=O)CC(C)C5=O)C(C)C)cc4CC[C@@H]4O[C@H](C(=O)O)[C@@H](O)[C@H](O)[C@H]4O)cc3F)s2)nnc1Nc1nc2ccccc2s1 (stereo partly drawn) [Ab C - L106A-P2] | 1 | 0.7 | 0.85 |  |  | 
Cc1cc(N(C)c2nc(C(=O)[O-])c(CCCOc3ccc(C#CC[N+](C)(C)Cc4ccc(O[C@@H]5O[C@H](C(=O)O)[C@@H](O)[C@H](O)[C@H]5O)c(NC(=O)CCNC(=O)CCOCCN5C(=O)CC(C)C5=O)c4)cc3F)s2)nnc1Nc1nc2ccccc2s1 (stereo partly drawn) [Ab C - L108A-P2] | 2.1 | 0.97 | 1.54 |  |  | 
CNCC#Cc1ccc(OCCCc2sc(N3CCCc4c3nnc(Nc3nc5ccccc5s3)c4C)nc2C(=O)O)c(F)c1 [P3, 2-{3-[(1,3-Benzothiazol-2-yl)amino]-4-methyl-5H,6H,7H,8H-pyrido[2,3-c]pyridazin-8-yl}-5-(3-{2-fluoro-4-[3-(methylamino)prop-1-yn-1-yl]phenoxy}propyl)-1,3-thiazole-4-carboxylic acid] |  |  |  | 4 | 28 | 16
Cc1cc(N(C)c2nc(C(=O)O)c(CCCOc3ccc(C#CC(C)N(C)C)cc3F)s2)nnc1Nc1nc2ccccc2s1 (stereo not drawn) [P11, 2-[[6-(1,3-Benzothiazol-2-ylamino)-5-methyl-pyridazin-3-yl]-methyl-amino]-5-[3-[4-[3-(dimethylamino)but-1-ynyl]-2-fluoro-phenoxy]propyl]thiazole-4-carboxylic acid] |  |  |  | 0.7 | 1.2 | 0.95
Cc1c(Nc2nc3ccccc3s2)nnc2c1CCCN2c1nc(C(=O)O)c(CCCOc2ccc(C#CCNCCN(C)C)cc2F)s1 [P12, 2-[3-(1,3-Benzothiazol-2-ylamino)-4-methyl-6,7-dihydro-5H-pyrido[2,3-c]pyridazin-8-yl]-5-[3-[4-[3-[2-(dimethylamino)ethylamino]prop-1-ynyl]-2-fluoro-phenoxy]propyl]thiazole-4-carboxylic acid] |  |  |  | 0.95 | 2 | 1.48
CCN(CC)CC#Cc1ccc(OCCCc2sc(N3CCCc4c3nnc(Nc3nc5ccccc5s3)c4C)nc2C(=O)O)c(F)c1 [P14, 2-[3-(1,3-Benzothiazol-2-ylamino)-4-methyl-6,7-dihydro-5H-pyrido[2,3-c]pyridazin-8-yl]-5-[3-[4-[3-(diethylamino)prop-1-ynyl]-2-fluoro-phenoxy]propyl]thiazole-4-carboxylic acid] |  |  |  | 1.9 | 5.4 | 3.65
Cc1c(Nc2nc3ccccc3s2)nnc2c1CCCN2c1nc(C(=O)O)c(CCCOc2ccc(C#CCN3CCC(F)(F)CC3)cc2F)s1 [P15, 2-{3-[(1,3-Benzothiazol-2-yl)amino]-4-methyl-5H,6H,7H,8H-pyrido[2,3-c]pyridazin-8-yl}-5-(3-{4-[3-(4,4-difluoropiperidin-1-yl)prop-1-yn-1-yl]-2-fluorophenoxy}propyl)-1,3-thiazole-4-carboxylic acid] |  |  |  | 0.98 | 1.2 | 1.09
CNCCOC1Cc2c(nnc(Nc3nc4ccccc4s3)c2C)N(c2nc(C(=O)O)c(CCCOc3ccc(C#CCN(C)C)cc3F)s2)C1 (stereo not drawn) [P16, 2-{3-[(1,3-Benzothiazol-2-yl)amino]-4-methyl-6-[2-(methylamino)ethoxy]-5H,6H,7H,8H-pyrido[2,3-c]pyridazin-8-yl}-5-(3-{4-[3-(dimethylamino)prop-1-yn-1-yl]-2-fluorophenoxy}propyl)-1,3-thiazole-4-carboxylic acid] |  |  |  | 6.1 | 6.2 | 6.15
Cc1c(Nc2nc3ccccc3s2)nnc2c1CCCN2c1nc(C(=O)O)c(CCCOc2ccc(C#CCN3CCCCC3)cc2F)s1 [P18, 2-[3-(1,3-Benzothiazol-2-ylamino)-4-methyl-6,7-dihydro-5H-pyrido[2,3-c]pyridazin-8-yl]-5-[3-[2-fluoro-4-[3-(1-piperidyl)prop-1-ynyl]phenoxy]propyl]thiazole-4-carboxylic acid] |  |  |  | 1.8 | 3.5 | 2.65
Cc1c(Nc2nc3ccccc3s2)nnc2c1CCCN2c1ccc(-c2cnn(C[C@]34C[C@]5(C)C[C@](C)(C3)C[C@@](OCCNCC(CO)CO)(C5)C4)c2C)c(C(=O)O)n1 [P23, 6-[3-(1,3-benzothiazol-2-ylamino)-4-methyl-6,7-dihydro-5H-pyrido[2,3-c]pyridazin-8-yl]-3-[1-[[3-[2-[[3-hydroxy-2-(hydroxymethyl)propyl]amino]ethoxy]-5,7-dimethyl-1-adamantyl]methyl]-5-methyl-pyrazol-4-yl]pyridine-2-carboxylic acid] |  |  |  | 4 | 2.8 | 3.4
Cc1c(Nc2nc3ccccc3s2)nnc2c1CCCN2c1ccc(-c2cnn(C[C@]34C[C@]5(C)C[C@](C)(C3)C[C@@](OCCNC(CO)CO)(C5)C4)c2C)c(C(=O)O)n1 [P24, 6-[3-(1,3-benzothiazol-2-ylamino)-4-methyl-6,7-dihydro-5H-pyrido[2,3-c]pyridazin-8-yl]-3-[1-[[3-[2-[[2-hydroxy-1-(hydroxymethyl)ethyl]amino]ethoxy]-5,7-dimethyl-1-adamantyl]methyl]-5-methyl-pyrazol-4-yl]pyridine-2-carboxylic acid] |  |  |  | 2.1 | 1.8 | 1.95
Cc1cc(N(C)c2ccc(-c3cnn(C[C@]45C[C@]6(C)C[C@](C)(C4)C[C@@](OCCNCCCO)(C6)C5)c3C)c(C(=O)O)n2)nnc1Nc1nc2ccccc2s1 [P26, 6-[[6-(1,3-benzothiazol-2-ylamino)-5-methyl-pyridazin-3-yl]-methyl-amino]-3-[1-[[3-[2-(3-hydroxypropylamino)ethoxy]-5,7-dimethyl-1-adamantyl]methyl]-5-methyl-pyrazol-4-yl]pyridine-2-carboxylic acid] |  |  |  | 0.68 | 0.69 | 0.69
Cc1c(Nc2nc3ccccc3s2)nnc2c1CCCN2c1ccc(-c2cnn(C[C@]34C[C@]5(C)C[C@](C)(C3)C[C@@](OCCN(C)C)(C5)C4)c2C)c(C(=O)O)n1 [P27, 6-{3-[(1,3-benzothiazol-2-yl)amino]-4-methyl-6,7-dihydropyrido[2,3-c]pyridazin-8(5H)-yl}-3-[1-({3-[2-(dimethylamino)ethoxy]-5,7-dimethyladamantan-1-yl}methyl)-5-methyl-1H-pyrazol-4-yl]pyridine-2-carboxylic acid] |  |  |  | 0.22 | 0.3 | 0.26
Cc1c(Nc2nc3ccccc3s2)nnc2c1CCCN2c1nc(C(=O)O)c(CCCOc2ccc(C#CCN(C)C)cc2)s1 [P28, 2-[3-(1,3-benzothiazol-2-ylamino)-4-methyl-6,7-dihydro-5H-pyrido[2,3-c]pyridazin-8-yl]-5-[3-[4-[3-(dimethylamino)prop-1-ynyl]phenoxy]propyl]thiazole-4-carboxylic acid] |  |  |  | 0.39 | 0.18 | 0.29
COCCCNCCOC12CC3(C)CC(C)(CC(Cn4ncc(-c5ccc(N(C)c6cc(C)c(Nc7nc8ccccc8s7)nn6)nc5C(=O)O)c4C)(C3)C1)C2 [P29, 6-[[6-(1,3-benzothiazol-2-ylamino)-5-methyl-pyridazin-3-yl]-methyl-amino]-3-[1-[[3-[2-(3-methoxypropylamino)ethoxy]-5,7-dimethyl-1-adamantyl]methyl]-5-methyl-pyrazol-4-yl]pyridine-2-carboxylic acid] |  |  |  | 0.57 | 0.47 | 0.52
Cc1c(Nc2nc3ccccc3s2)nnc2c1CCCN2c1ccc(-c2cnn(C[C@]34C[C@]5(C)C[C@](C)(C3)C[C@@](OCCN3CCNCC3)(C5)C4)c2C)c(C(=O)O)n1 [P31, 6-[3-(1,3-benzothiazol-2-ylamino)-4-methyl-6,7-dihydro-5H-pyrido[2,3-c]pyridazin-8-yl]-3-[1-[[3,5-dimethyl-7-(2-piperazin-1-ylethoxy)-1-adamantyl]methyl]-5-methyl-pyrazol-4-yl]pyridine-2-carboxylic acid] |  |  |  | 0.57 | 1.4 | 0.99
Cc1c(Nc2nc3ccccc3s2)nnc2c1CCCN2c1ccc(-c2cnn(C[C@]34C[C@]5(C)C[C@](C)(C3)C[C@@](OCCN3CCN(C(C)C)CC3)(C5)C4)c2C)c(C(=O)O)n1 [P32, 6-[3-(1,3-benzothiazol-2-ylamino)-4-methyl-6,7-dihydro-5H-pyrido[2,3-c]pyridazin-8-yl]-3-[1-[[3-[2-(4-isopropylpiperazin-1-yl)ethoxy]-5,7-dimethyl-1-adamantyl]methyl]-5-methyl-pyrazol-4-yl]pyridine-2-carboxylic acid] |  |  |  | 0.24 | 0.22 | 0.23
